SMILES	melting point [°C]
COC(=O)C(C)(C)Sc1cccc(OCCn2c3ccccc3c3ccccc32)c1 [Example 6, methyl 2-[3-(2-(carbazol-9-yl)ethoxy)phenylthio]isobutyrate]	101 to 103
COC(=O)C(C)(C)Sc1ccc(OCCn2c3ccccc3c3ccccc32)cc1 [Example 7, methyl 2-[4-(2-(carbazol-9-yl)ethoxy)phenylthio]isobutyrate]	72 to 74
COC(=O)C(C)(C)Sc1ccc(OCCc2ccc3ccccc3c2)cc1 [Example 11, methyl 2-[4-[2-(2-naphthyl)ethoxy]phenylthio]isobutyrate]	56 to 57
CC(C)(Sc1ccc(OCCc2ccc(Cl)cc2)cc1)C(=O)O [Example 12, 2-[4-[2-(4-chlorophenyl)ethoxy]phenylthio]-2-methylpropanoic acid]	87 to 88

Further lines, results first:

melting point [°C]	SMILES
103 to 104	CC(C)(Sc1ccc(OCCc2ccc3ccccc3c2)cc1)C(=O)O [Example 19, 2-[4-[2-(2-naphthyl)ethoxy]phenylthio]-2-methylpropanoic acid]
81 to 82	COC(=O)C(C)(C)Sc1cccc(OCc2ccc(-c3ccc([N+](=O)[O-])cc3)o2)c1 [Example 22, methyl 2-[3-[5-(4-nitrophenyl)furfuryloxy]phenylthio]isobutyrate]
137 to 138	CC(C)(Sc1cccc(OCc2ccc(-c3ccc([N+](=O)[O-])cc3)o2)c1)C(=O)O [Example 25, 2-methyl-2-[3-[5-(4-nitrophenyl)furfuryloxy]phenylthio]propanoic acid]

Reference: patent US7375124B2, “Use of α-phenylthiocarboxylic and α-phenyloxycarboxylic acids with serum-glucose-lowering and serum-lipid-lowering activity” (Sigma-Tau Industrie Farmaceutiche Riunite S.p.A., priority 2002, dated 2008)
